Consider three compounds from PMC4457528, “Identification of Novel Small Molecule Inhibitors of Oncogenic RET Kinase” (PLoS ONE, 2015).

Read-outs that look alike come from different tables or passages of the source.

Holding throughout (assay): KinomeScan kinase panel, single concentration 10 µM
What all share (format): binding

Test [1] addresses T1, KinomeScan kinase panel (Homo sapiens, UniProt P22607, G697C).
T1 construct: purchased DiscoveRx (KinomeScan)
Conditions: FGFR3(G697C), 10 µM; read-out: score (%).

In test [2] the target is T2, KinomeScan kinase panel (Homo sapiens, UniProt P53667).
T2 construct: purchased DiscoveRx (KinomeScan)
Conditions: LIMK1, 10 µM; read-out: score (%).

For test [3], the target named is T3, KinomeScan kinase panel (Homo sapiens, UniProt P54760).
T3 construct: purchased DiscoveRx (KinomeScan)
T3 sequence (P54760 16-987): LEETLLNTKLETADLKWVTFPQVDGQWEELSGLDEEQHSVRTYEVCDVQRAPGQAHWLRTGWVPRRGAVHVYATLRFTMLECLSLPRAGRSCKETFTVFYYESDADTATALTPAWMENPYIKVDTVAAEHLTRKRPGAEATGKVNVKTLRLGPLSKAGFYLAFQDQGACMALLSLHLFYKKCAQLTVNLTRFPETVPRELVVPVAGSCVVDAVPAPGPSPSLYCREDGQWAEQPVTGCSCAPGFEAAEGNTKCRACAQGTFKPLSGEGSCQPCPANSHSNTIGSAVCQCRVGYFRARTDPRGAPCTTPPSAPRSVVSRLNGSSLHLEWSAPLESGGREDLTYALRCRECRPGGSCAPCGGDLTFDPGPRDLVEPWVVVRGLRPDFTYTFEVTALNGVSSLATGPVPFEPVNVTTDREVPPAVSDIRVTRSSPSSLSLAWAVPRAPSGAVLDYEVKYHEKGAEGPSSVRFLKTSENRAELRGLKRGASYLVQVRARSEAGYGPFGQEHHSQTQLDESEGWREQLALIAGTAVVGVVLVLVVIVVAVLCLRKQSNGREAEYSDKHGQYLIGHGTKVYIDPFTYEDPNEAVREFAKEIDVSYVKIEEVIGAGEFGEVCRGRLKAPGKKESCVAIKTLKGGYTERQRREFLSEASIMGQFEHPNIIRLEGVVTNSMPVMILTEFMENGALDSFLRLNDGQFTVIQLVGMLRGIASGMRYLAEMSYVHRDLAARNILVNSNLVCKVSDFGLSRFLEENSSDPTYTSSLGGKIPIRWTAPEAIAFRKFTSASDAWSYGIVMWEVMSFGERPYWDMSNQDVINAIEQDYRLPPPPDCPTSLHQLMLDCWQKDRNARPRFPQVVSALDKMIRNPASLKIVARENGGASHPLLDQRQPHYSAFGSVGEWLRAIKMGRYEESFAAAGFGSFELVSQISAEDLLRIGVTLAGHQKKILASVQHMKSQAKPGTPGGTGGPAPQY
Conditions: EPHB4, 10 µM; read-out: score (%).

In test [4] the target is T4, KinomeScan kinase panel (Homo sapiens, UniProt Q12852).
T4 construct: purchased DiscoveRx (KinomeScan)
T4 sequence (Q12852 1-859): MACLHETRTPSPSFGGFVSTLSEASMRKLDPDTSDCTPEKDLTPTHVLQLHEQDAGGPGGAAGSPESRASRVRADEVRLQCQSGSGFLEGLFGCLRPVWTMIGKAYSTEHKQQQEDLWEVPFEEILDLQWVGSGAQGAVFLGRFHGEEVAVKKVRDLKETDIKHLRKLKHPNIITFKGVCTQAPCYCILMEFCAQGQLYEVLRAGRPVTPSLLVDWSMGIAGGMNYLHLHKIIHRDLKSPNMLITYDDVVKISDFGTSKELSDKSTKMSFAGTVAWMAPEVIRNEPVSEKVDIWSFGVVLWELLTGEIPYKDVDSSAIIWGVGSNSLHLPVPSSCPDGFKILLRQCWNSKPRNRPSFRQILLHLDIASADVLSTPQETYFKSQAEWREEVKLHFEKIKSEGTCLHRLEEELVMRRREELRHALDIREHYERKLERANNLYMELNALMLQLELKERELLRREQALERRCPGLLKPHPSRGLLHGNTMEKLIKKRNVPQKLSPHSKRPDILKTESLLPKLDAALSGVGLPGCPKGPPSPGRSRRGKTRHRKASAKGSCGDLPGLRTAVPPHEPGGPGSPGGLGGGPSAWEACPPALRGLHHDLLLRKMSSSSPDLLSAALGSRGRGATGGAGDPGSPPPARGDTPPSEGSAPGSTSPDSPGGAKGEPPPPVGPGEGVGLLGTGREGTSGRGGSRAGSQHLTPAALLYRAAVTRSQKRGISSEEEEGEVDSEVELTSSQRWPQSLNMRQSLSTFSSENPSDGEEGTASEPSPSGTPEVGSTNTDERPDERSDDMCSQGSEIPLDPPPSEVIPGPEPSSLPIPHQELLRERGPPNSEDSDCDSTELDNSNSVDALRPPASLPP
To be noted: DLK, 10 µM.

In test [5] the target is T5, KinomeScan kinase panel (Homo sapiens, UniProt Q13976).
T5 construct: purchased DiscoveRx (KinomeScan)
T5 sequence (Q13976 1-671): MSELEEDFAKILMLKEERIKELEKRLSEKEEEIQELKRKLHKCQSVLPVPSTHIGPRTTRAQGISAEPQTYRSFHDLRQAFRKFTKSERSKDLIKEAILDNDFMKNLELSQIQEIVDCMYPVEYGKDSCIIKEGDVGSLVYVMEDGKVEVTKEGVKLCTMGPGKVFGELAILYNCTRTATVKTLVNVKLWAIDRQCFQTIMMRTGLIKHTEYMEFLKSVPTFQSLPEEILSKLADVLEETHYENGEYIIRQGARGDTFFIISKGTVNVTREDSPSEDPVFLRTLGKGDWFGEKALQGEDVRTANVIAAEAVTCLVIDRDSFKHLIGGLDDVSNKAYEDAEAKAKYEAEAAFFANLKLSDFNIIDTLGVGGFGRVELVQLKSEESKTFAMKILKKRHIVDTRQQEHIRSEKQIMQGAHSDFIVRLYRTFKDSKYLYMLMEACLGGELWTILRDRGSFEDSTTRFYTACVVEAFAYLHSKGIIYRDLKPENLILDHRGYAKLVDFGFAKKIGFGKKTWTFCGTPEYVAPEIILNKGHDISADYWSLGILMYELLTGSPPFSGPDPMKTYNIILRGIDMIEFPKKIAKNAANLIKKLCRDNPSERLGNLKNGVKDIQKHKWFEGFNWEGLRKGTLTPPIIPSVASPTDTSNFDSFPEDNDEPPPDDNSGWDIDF
Conditions: read-out: score (%).

Test [6] concerns the target T6, KinomeScan kinase panel (Homo sapiens, UniProt Q9NSY1).
T6 construct: purchased DiscoveRx (KinomeScan)
To be noted: BIKE, 10 µM; read-out: score (%).

Test [7] addresses T7, KinomeScan kinase panel (Homo sapiens, UniProt Q9UQM7).
T7 construct: purchased DiscoveRx (KinomeScan)
To be noted: CAMK2A, 10 µM; read-out: score (%).

Test [8] concerns the target T8, KinomeScan kinase panel (Homo sapiens, UniProt Q9Y6E0).
T8 construct: purchased DiscoveRx (KinomeScan)
Conditions: MST3, 10 µM.

T2 sequence (P53667 whole entry): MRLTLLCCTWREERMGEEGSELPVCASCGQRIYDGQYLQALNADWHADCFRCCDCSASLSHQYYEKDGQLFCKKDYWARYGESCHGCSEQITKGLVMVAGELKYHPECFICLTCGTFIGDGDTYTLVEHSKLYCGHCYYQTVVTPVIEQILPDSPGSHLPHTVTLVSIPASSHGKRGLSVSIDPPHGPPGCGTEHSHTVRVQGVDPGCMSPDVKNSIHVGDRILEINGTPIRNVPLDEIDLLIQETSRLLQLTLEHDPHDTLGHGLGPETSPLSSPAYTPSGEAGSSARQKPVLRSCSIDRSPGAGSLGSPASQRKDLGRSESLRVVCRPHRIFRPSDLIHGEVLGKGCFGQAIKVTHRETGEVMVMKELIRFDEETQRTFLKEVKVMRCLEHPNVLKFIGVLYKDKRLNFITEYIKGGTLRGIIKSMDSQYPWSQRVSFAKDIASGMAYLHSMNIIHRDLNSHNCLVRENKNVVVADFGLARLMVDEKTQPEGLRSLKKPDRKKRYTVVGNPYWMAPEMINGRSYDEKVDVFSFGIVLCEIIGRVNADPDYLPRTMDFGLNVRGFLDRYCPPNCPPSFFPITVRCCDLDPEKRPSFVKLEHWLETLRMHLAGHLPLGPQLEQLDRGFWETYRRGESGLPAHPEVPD
T1 sequence (P22607 23-806 G697C): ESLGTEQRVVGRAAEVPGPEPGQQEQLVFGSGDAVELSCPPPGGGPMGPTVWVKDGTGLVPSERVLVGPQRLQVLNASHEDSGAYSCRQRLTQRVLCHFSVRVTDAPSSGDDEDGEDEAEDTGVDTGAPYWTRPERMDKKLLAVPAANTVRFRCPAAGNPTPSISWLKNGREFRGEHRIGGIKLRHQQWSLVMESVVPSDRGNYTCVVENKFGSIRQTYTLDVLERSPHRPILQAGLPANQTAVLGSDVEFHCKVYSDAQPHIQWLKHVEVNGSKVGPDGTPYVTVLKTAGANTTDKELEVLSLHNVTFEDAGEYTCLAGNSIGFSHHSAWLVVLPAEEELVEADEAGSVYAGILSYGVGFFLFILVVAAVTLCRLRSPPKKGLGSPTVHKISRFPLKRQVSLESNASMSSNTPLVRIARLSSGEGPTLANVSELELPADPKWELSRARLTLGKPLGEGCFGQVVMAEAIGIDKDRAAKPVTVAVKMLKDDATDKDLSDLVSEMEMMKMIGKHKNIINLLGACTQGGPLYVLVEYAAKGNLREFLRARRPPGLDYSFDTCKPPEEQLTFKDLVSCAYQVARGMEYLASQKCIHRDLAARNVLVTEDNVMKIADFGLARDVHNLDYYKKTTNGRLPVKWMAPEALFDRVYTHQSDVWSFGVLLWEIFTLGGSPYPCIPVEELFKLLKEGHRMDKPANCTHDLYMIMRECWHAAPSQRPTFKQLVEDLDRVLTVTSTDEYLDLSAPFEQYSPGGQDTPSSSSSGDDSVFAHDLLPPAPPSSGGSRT
T8 sequence (Q9Y6E0 whole entry): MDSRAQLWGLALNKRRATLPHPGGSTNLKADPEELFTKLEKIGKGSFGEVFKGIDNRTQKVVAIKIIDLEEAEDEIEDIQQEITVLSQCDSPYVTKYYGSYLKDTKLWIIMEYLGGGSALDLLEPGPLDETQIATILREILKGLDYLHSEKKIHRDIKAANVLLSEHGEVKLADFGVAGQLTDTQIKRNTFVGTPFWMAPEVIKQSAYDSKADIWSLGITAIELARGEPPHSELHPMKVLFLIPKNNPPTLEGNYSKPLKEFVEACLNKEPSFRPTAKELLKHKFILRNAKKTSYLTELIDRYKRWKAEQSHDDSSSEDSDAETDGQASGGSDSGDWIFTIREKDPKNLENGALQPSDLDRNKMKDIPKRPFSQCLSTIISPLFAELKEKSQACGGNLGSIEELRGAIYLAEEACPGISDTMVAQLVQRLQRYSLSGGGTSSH
T6 sequence (Q9NSY1 whole entry): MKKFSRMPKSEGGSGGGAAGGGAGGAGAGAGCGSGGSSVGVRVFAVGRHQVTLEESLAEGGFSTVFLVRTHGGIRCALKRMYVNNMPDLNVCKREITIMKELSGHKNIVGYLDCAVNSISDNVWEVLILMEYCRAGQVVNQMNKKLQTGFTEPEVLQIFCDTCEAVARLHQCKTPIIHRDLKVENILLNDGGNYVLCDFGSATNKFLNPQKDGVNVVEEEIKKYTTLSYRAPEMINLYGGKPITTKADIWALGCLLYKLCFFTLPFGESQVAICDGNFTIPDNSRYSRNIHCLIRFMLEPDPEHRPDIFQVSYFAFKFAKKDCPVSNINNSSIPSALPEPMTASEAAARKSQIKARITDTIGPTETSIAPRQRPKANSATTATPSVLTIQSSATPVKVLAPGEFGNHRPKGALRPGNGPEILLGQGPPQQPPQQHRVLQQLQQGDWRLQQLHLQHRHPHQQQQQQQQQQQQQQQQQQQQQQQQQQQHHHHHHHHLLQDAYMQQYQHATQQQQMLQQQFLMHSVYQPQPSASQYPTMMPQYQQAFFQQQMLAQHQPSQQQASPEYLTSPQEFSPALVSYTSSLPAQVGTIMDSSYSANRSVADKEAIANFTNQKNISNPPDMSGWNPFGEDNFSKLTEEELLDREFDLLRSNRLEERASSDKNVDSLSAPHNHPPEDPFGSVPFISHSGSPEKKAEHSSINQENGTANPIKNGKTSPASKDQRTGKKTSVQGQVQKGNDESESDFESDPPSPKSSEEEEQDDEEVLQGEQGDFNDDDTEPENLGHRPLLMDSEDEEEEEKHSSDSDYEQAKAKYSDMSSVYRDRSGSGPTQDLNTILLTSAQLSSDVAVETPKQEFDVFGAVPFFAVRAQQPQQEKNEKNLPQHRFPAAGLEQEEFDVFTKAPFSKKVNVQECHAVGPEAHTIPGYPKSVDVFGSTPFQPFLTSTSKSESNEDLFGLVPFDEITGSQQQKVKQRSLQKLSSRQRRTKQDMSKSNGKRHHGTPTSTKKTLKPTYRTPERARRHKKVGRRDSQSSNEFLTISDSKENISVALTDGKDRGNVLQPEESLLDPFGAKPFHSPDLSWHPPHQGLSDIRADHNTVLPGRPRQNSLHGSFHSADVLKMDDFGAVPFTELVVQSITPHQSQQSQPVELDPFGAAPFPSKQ
T7 sequence (Q9UQM7 whole entry): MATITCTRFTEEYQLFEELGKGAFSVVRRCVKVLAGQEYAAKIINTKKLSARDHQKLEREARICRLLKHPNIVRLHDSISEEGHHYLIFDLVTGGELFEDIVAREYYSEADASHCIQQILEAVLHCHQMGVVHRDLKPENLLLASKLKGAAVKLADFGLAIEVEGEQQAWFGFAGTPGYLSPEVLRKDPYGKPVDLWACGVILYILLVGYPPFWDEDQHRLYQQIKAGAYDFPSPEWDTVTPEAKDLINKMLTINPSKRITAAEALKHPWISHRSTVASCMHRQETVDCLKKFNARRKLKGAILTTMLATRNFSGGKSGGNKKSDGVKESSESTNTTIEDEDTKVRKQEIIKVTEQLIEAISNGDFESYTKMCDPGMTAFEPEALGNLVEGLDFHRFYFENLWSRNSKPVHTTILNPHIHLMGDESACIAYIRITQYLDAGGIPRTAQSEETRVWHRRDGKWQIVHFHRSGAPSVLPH

Take `CCN1CCN(Cc2ccc(NC(=O)c3ccc(C)c(NC(=O)c4cncc(-c5cccs5)c4)c3)cc2C(F)(F)F)CC1` [ALW-II-41-27]: the remaining binding at 10 µM is greater than 30% in test [1]; 23% in test [2]; 0.55% in test [3]; greater than 30% in test [5] (PRKG1, 10 µM); greater than 30% in test [6]; greater than 30% in test [7]. The “score (%)” value in test [4] is recorded as 28%; in test [8], “nb (Hits values higher than 30% were considered negative (no binding: nb))”.

`CCN1CCN(Cc2ccc(NC(=O)c3ccc(C)c(/C=C/c4cnc5[nH]ccc5c4Cl)c3)cc2C(F)(F)F)CC1` [HG-6-63-01, (E)-3-(2-(4-chloro-1H-pyrrolo[2,3-b]pyridin-5-yl)vinyl)-N-(4-((4-ethylpiperazin-1-yl)methyl)-3-(trifluoromethyl)phenyl)-4-methylbenzamide]: the remaining binding at 10 µM in test [1] was 2.4%; in test [2] it was 4.1%; in test [3] it was 5.7%; in test [5] (PRKG1, 10 µM), greater than 30%; in test [6], 1.2%; in test [7], greater than 30%. Besides, the “score (%)” value is on record as 5.5% in test [4] and “nb (Hits values higher than 30% were considered negative (no binding: nb))” in test [8].

Turning to `CCN1CCN(Cc2ccc(NC(=O)c3ccc(C)c(C#Cc4cccnc4)c3)cc2C(F)(F)F)CC1` [XMD15-44], the remaining binding at 10 µM is 0.05% in test [1]; 3% in test [2]; 1.6% in test [3]; 100% in test [5] (kinase PRKG1, 10 µM); greater than 30% in test [6]; greater than 30% in test [7]. In addition, the “score (%)” value is listed as 9.8% in test [4] and 2.8% in test [8].
